Source: PubChem BioAssay (NCI)
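Protocol summary: plate cells (96-well), add compound at 5 concentrations, incubate 48 h, interpolate endpoints linearly. GI50: concentration for 50% inhibition of growth. At the TGI there is no net growth.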

What was measured:
Experiment in all cases: inhibition of tumour cell growth, NCI panel, 48 h
[1] = system: OVCAR-3 ovarian
[2] = system: EKVX NSCLC
[3] = system: SNB-19 CNS
[4] = system: SK-MEL-5 melanoma
[5] = system: HOP-92 NSCLC
[6] = system: SK-OV-3 ovarian
[7] = system: OVCAR-8 ovarian
[8] = system: TK-10 renal
[9] = system: K-562 leukemia
[10] = system: NCI-H522 lung

SMILES: CSc1nc(NC2OC(COC(C)=O)C(OC(C)=O)C(OC(C)=O)C2OC(C)=O)c2c(OC(C)=O)c(C)c(=O)oc2n1 (stereo not drawn)
- TGI [1]: > 100 µM
- TGI [2]: > 100 µM
- TGI [3]: > 100 µM
- TGI [4]: > 100 µM
- TGI [5]: > 100 µM
- TGI [6]: > 100 µM
- TGI [7]: > 100 µM
- TGI [8]: > 100 µM
- TGI [9]: > 100 µM

SMILES: N#Cc1cnsc1
- TGI [1]: > 100 µM
- TGI [2]: > 100 µM
- TGI [4]: > 100 µM
- TGI [5]: > 100 µM
- TGI [6]: > 100 µM
- TGI [7]: > 100 µM
- TGI [8]: > 100 µM
- TGI [9]: > 100 µM

SMILES: C#CC[C@]12CC(=O)CC[C@H]1CC(=O)C2
- TGI [1]: > 100 µM
- TGI [3]: > 100 µM
- TGI [4]: > 100 µM
- TGI [6]: > 100 µM
- TGI [7]: > 100 µM
- TGI [8]: > 100 µM
- TGI [10]: > 100 µM
- TGI [9]: > 100 µM

SMILES: COc1ccc(C2CC(=O)c3c(O)c(OC)c(OC)c(OC)c3O2)c(O)c1 (stereo not drawn)
- GI50 [2]: 0.232 µM
- TGI [2]: 88.8 µM
- GI50 [3]: 0.384 µM
- TGI [3]: > 100 µM
- GI50 [4]: 0.0673 µM
- TGI [4]: 2.03 µM
- GI50 [5]: 0.0574 µM
- TGI [5]: 13.9 µM
- GI50 [6]: 0.308 µM
- TGI [6]: 24.8 µM
- GI50 [7]: 0.294 µM
- TGI [7]: 40.9 µM
- GI50 [8]: 4.96 µM
- TGI [8]: 49 µM
- GI50 [10]: 0.0326 µM
- TGI [10]: 0.188 µM
- GI50 [9]: 0.0378 µM
- TGI [9]: 26.2 µM

SMILES: CCCCNC(=O)NS(=O)(=O)c1ccc(N2N=C(c3ccc(C)cc3C)CC2c2ccc(N(C)C)cc2)cc1 (stereo not drawn)
- GI50 [1]: 2.5 µM
- TGI [1]: 5.72 µM
- GI50 [3]: 4.59 µM
- TGI [3]: > 100 µM
- GI50 [4]: 2.22 µM
- TGI [4]: 5.42 µM
- GI50 [5]: 2.39 µM
- TGI [5]: 31.4 µM
- GI50 [6]: 8.16 µM
- TGI [6]: > 100 µM
- GI50 [7]: 3.68 µM
- TGI [7]: > 100 µM
- GI50 [8]: 5.64 µM
- TGI [8]: > 100 µM
- GI50 [10]: 3.25 µM
- TGI [10]: 14.8 µM
- GI50 [9]: 3.58 µM
- TGI [9]: > 100 µM

SMILES: CC(C)CC(N)C(=O)O (stereo not drawn)
- TGI [1]: > 100 µM
- TGI [3]: > 100 µM
- TGI [4]: > 100 µM
- TGI [5]: > 100 µM
- TGI [6]: > 100 µM
- TGI [7]: > 100 µM
- TGI [8]: > 100 µM
- TGI [10]: > 100 µM
- TGI [9]: > 100 µM

SMILES: O=C(C[C@@H](C(=O)NCc1cccc(C(F)(F)F)c1)N1C(=O)[C@@H](N2C(=O)OC[C@@H]2c2ccccc2)[C@H]1/C=C/c1ccccc1)NC1CCN(Cc2ccccc2)CC1
- GI50 [1]: 10.4 µM
- TGI [1]: 25.1 µM
- GI50 [2]: 15.1 µM
- TGI [2]: 41.7 µM
- GI50 [3]: 9.33 µM
- TGI [3]: 36.5 µM
- GI50 [4]: 3.47 µM
- TGI [4]: 12.5 µM
- GI50 [6]: 15.3 µM
- TGI [6]: 28.6 µM
- GI50 [7]: 3.08 µM
- GI50 [8]: 10.2 µM
- TGI [8]: 23.4 µM
- GI50 [10]: 2.81 µM
- TGI [10]: 13.2 µM
- GI50 [9]: 1.77 µM
- TGI [9]: 4.17 µM

SMILES: COc1cc([N+](=O)[O-])ccc1NC(=O)C(F)(F)F
- TGI [1]: > 100 µM
- TGI [2]: > 100 µM
- TGI [3]: > 100 µM
- TGI [4]: > 100 µM
- TGI [6]: > 100 µM
- TGI [7]: > 100 µM
- TGI [8]: > 100 µM
- TGI [10]: > 100 µM
- TGI [9]: > 100 µM

SMILES: CC(C)=[CH][Sb]([Br])([CH]=C(C)C)([CH]=C(C)C)[CH]=C(C)C
- GI50 [1]: 2.44 µM
- TGI [1]: 59.8 µM
- GI50 [2]: 4.88 µM
- TGI [2]: 88.6 µM
- GI50 [3]: 14.7 µM
- TGI [3]: 89.4 µM
- GI50 [4]: 3.82 µM
- TGI [4]: 24.3 µM
- GI50 [6]: 2.5 µM
- TGI [6]: 8.83 µM
- GI50 [7]: 23 µM
- TGI [7]: > 100 µM
- GI50 [8]: 34.9 µM
- TGI [8]: > 100 µM
- GI50 [10]: 1.5 µM
- TGI [10]: 20.2 µM
- GI50 [9]: 6.7 µM
- TGI [9]: > 100 µM

SMILES: COC(=O)C1=C(c2ccc3c(c2)OCO3)O[C@H](c2ccc3c(c2)OCO3)[C@H]1COC(C)=O
- TGI [1]: > 100 µM
- TGI [2]: > 100 µM
- TGI [4]: 75.2 µM
- TGI [5]: > 100 µM
- TGI [6]: > 100 µM
- TGI [7]: > 100 µM
- TGI [8]: > 100 µM
- TGI [9]: > 100 µM

SMILES: COc1ccc(C(=O)/C=C/c2cccnc2Nc2cc(OC)c(OC)c(OC)c2)cc1
- GI50 [1]: 0.617 µM
- TGI [1]: 4.72 µM
- GI50 [2]: 5.11 µM
- TGI [2]: 19.2 µM
- GI50 [3]: 2.82 µM
- TGI [3]: 17.3 µM
- GI50 [4]: 2.2 µM
- TGI [4]: 10.6 µM
- GI50 [5]: 2.4 µM
- TGI [5]: 11.8 µM
- GI50 [6]: 4.12 µM
- TGI [6]: 16.4 µM
- GI50 [7]: 2.2 µM
- TGI [7]: 11 µM
- GI50 [8]: 1.83 µM
- TGI [8]: 5.53 µM
- GI50 [10]: 0.93 µM
- TGI [10]: 2.65 µM

SMILES: COc1ccc(-c2nc(-c3nc4ccc(C)cc4[nH]3)c3ccccn23)cc1
- GI50 [1]: 2.99 µM
- TGI [1]: 10.2 µM
- GI50 [3]: 2.97 µM
- TGI [3]: > 100 µM
- GI50 [4]: 1.39 µM
- TGI [4]: 2.72 µM
- GI50 [5]: 0.416 µM
- TGI [5]: 4.36 µM
- GI50 [6]: 6.95 µM
- TGI [6]: > 100 µM
- GI50 [7]: 2.05 µM
- TGI [7]: 6.15 µM
- GI50 [8]: 3.39 µM
- TGI [8]: 9.22 µM
- GI50 [10]: 1.95 µM
- TGI [10]: 4.63 µM
- GI50 [9]: 2.92 µM
- TGI [9]: > 100 µM

SMILES: CC(=O)c1ccc(NC(=O)/C(Cc2ccccn2)=N/NC(=O)C[N+](C)(C)C)cc1
- TGI [1]: > 100 µM
- TGI [2]: > 100 µM
- TGI [3]: > 100 µM
- TGI [4]: > 100 µM
- TGI [6]: > 100 µM
- TGI [7]: > 100 µM
- TGI [8]: > 100 µM
- TGI [10]: > 100 µM
- TGI [9]: > 100 µM

SMILES: N#CCCN(c1ccc(/C=C2\N=C(c3ccc(Cl)cc3)OC2=O)cc1)S(=O)(=O)c1ccccc1
- TGI [1]: > 100 µM
- TGI [2]: > 100 µM
- TGI [3]: > 100 µM
- TGI [4]: > 100 µM
- TGI [6]: > 100 µM
- TGI [7]: > 100 µM
- TGI [8]: > 100 µM
- TGI [10]: > 100 µM
- TGI [9]: > 100 µM

SMILES: N#CCCN(CCC#N)c1ccc(/C=C2\N=C(CN3C(=O)c4ccccc4C3=O)OC2=O)cc1
- TGI [1]: > 100 µM
- TGI [2]: > 100 µM
- TGI [3]: > 100 µM
- TGI [4]: > 100 µM
- TGI [6]: > 100 µM
- TGI [7]: > 100 µM
- TGI [10]: > 100 µM
- TGI [9]: > 100 µM

SMILES: COC(=O)CSc1n[nH]c(-c2ccc(O)c([N+](=O)[O-])c2)n1
- TGI [1]: > 100 µM
- TGI [2]: > 100 µM
- TGI [3]: > 100 µM
- TGI [4]: > 100 µM
- TGI [5]: > 100 µM
- TGI [7]: > 100 µM
- TGI [8]: > 100 µM
- TGI [9]: > 100 µM

SMILES: COc1cc(C(=O)O[C@H](C(N)=O)[C@]2(C)CO2)c2ccccc2c1
- GI50 [1]: 22.7 µM
- TGI [1]: 45.2 µM
- GI50 [2]: 18 µM
- TGI [2]: 50 µM
- GI50 [3]: 15.8 µM
- TGI [3]: 30.3 µM
- GI50 [4]: 7.52 µM
- TGI [4]: 22 µM
- GI50 [5]: 20.3 µM
- TGI [5]: 50.6 µM
- GI50 [6]: 14.3 µM
- TGI [6]: 28 µM
- GI50 [7]: 5.87 µM
- TGI [7]: 25.3 µM
- GI50 [8]: 19.7 µM
- TGI [8]: 37.5 µM
- GI50 [10]: 33.2 µM
- TGI [10]: > 100 µM

SMILES: CC#CC(=O)Nc1ccccc1CC(c1c[nH]c2ccccc12)c1c[nH]c2ccccc12
- TGI [1]: 49.6 µM
- TGI [2]: 54.7 µM
- TGI [3]: 45.6 µM
- TGI [4]: 29.8 µM
- TGI [6]: 59.3 µM
- TGI [7]: 76.7 µM
- TGI [8]: 92.3 µM
- TGI [9]: 39.2 µM
